Measurements as given in the NIST ThermoML archive (doi:10.1016/j.jct.2016.05.023).
± gives the expanded uncertainty stated by the source.

Settings: for Normal melting temperature: Crystal, DTA; for Glass transition temperature: DSC

Row | SMILES | Normal melting temperature | Glass transition temperature
1 | CC(=O)[O-].CCCCCCCCCCCCCC[P+](CCCCCC)(CCCCCC)CCCCCC [trihexyl(tetradecyl)phosphonium acetate] | -67 ± 2 °C | 
2 | CCCCCCCC[n+]1ccn(C)c1.[Cl-] [1-methyl-3-octylimidazolium chloride] |  | -74 ± 2 °C
3 | CC(=O)[O-].CCn1cc[n+](C)c1 [1-ethyl-3-methylimidazolium acetate] |  | -71 ± 2 °C
4 | CCCCn1cc[n+](C)c1.[Cl-] [1-butyl-3-methylimidazolium chloride] |  | -52 ± 2 °C
5 | CCn1cc[n+](C)c1.[Cl-] [1-ethyl-3-methylimidazolium chloride] | 84 ± 2 °C | 
6 | CCCCCCn1cc[n+](C)c1.[Cl-] [1-hexyl-3-methylimidazolium chloride] |  | -65 ± 2 °C
7 | CC(=O)[O-].CCCCn1cc[n+](C)c1 [1-butyl-3-methylimidazolium acetate] |  | -63 ± 2 °C
8 | CCCCCCCCCCCCCC[P+](CCCCCC)(CCCCCC)CCCCCC.[Cl-] [trihexyl(tetradecyl)phosphonium chloride] | -66 ± 2 °C | 
